Marks after values point to notes of the source that are not given here.
Legend:
[1] = system: Colon 26/AD cells (mouse colon cancer); assay type: in vivo
Protocol: Colon 26 mouse colon cancer cells (obtained from Cancer Chemotherapy Center Foundation for Cancer Research) were transplanted subcutaneously to BALB/c mouse, 10 days later, the grown tumor was taken out. It was hashed in a Hanks equilibrium salt solution and passed through a metal mesh to obtain single cells, which were cultured in vitro (37° C., 5% CO2) (using 10% fetal bovine serum-containing Dulbecco's Modified Eagle Medium (D-5648, manufactured by Sigma Co.)). […] The same cell strain always produced and secreted MMP-2 in the supernatant of the in vitro culture, but when cultured by an addition of TNF-α (50 ng/ml) in the culture solution, it produced MMP-9 remarkably.
With reference to the method by Tsuruo et al (Japanese Journal of Cancer Research (Gann), Vol. 75, 193-198, 1984), the inhibition effects against experimental lung metastasis were evaluated. Namely, 3×10^4 Colon 26/AD cells (suspended in 0.2 ml of Minimum Essential Medium (manufactured by Nissui Seiyaku K. K.)) cultured in vitro were transplanted through the tail vein of a male BALB/c AnNCrj mouse (purchased from Charles River Japan, Inc.) of 6 weeks old (Day 0). In the case of Compound No. 37, it was suspended in a 1% Tween 80/physiological sodium chloride aqueous solution and intraperitoneally administered (administered in a volume of 10 ml/kg) immediately (within 5 minutes) before transplantation of the cells, 2 hours later and once per day on Day 1-4 and Day 7-11 (a total of 11 times). Further, in the case of Compound No. 157, it was dissolved in 100 mM Tris-HCl (pH 8.5)/150 mM NaCl and forcibly orally administered (administered in a volume of 10 ml/kg) by means of a metal sonde 30 minutes before transplantation of the cells, in the morning and evening of Day 1 and once per day on Day 2-4, Day 7-11 and Day 14 (a total of 12 times). To the vehicle control group, the respective solvents containing no test materials, were administered in the same manner. On Day 14 or Day 15, the lung of each mouse was taken out, and the weight was measured, and the metastatis inhibition rate was calculated in accordance with the following formula. [formula]
A is the weight of lung of the treated group
B is the average weight of lung of the normal group
C is the average weight of lung of the solvent control group.

[2] = system: mouse arthritis model induced by a single immunization with collagen; experiment: Mouse arthritis model induced by a single immunization with collagen; assay type: in vivo
Protocol: With reference to the method by Kato, F. et al (Annals of the Rheumatic Diseases, Vol. 55, 535-539, 1996), a bovine type II collagen (K-41, manufactured by collagen Gijutsu Kenkyukai) solution (3 mg/ml) dissolved in 0.05N acetic acid and Freund's complete adjuvant (Freund, Adjuvant Complete; No. F5506, manufactured by Sigma Co.) were mixed in equal amounts and subjected to ultrasonic treatment (under cooling with ice, 20 seconds×3 times) to obtain a uniform emulsion.
0.1 ml (150 μg) of the antigen prepared as described above, was administered to the tail head skin of a female DBA/1JNCrj mouse of 5 weeks old (purchased from Charles River Japan, Inc.) (Day 0). After 2 weeks from sensitization (Day 14), Compound No. 164 (50 mg/kg) suspended in a 1% Tween 80/physiological sodium chloride aqueous solution was intraperitoneally administered (administered in a volume of 10 ml/kg) once a day continuously for 5 weeks. To the vehicle control group, the 1% Tween 80/physiological sodium chloride aqueous solution was administered in the same manner.
Sideration of arthritis was observed once a week from Day 1 in accordance with the following evaluation standards disclosed in a literature of Kato, F. et al (Annals of the Rheumatic Diseases, Vol. 55, 535-539, 1996) with respect to Knuckle joints of the respective four limbs.

SMILES | Metastatis inhibition ratio (%) ([1]; 10 mg/kg × 11 times (head), oral, Day 15) [%*] | Lung weight increase (g) against normal mouse ([1]; 10 mg/kg × 11 times (head), oral, Day 15, vehicle control 0.183 ± 0.11) [g] | Weight of lung (g) (Day 15) ([1]; 10 mg/kg × 11 times (head), oral, Day 15, vehicle control 0.364, normal mouse 0.181) | inhibition ratio of experimental metastasis of Colon 26/AD to lung ([1]; 10 mg/kg, oral administration, total of 12 times, male BALB/c mouse, from lung weight) [%] | sideration of arthritis compared with the control group ([2]; 50 mg/kg intraperitoneal everyday from Day 14 for 5 weeks, female DBA/1J mouse, p<0.01, Wilcoxon ranking test) | toxicity / body weight increase by observation of general findings ([2]; 50 mg/kg intraperitoneal everyday, during the test period) | Sideration ratio of arthritis (number of diseased animals/number of tested animals) ([2]; Day 14 (initial of administration of drug), 50 mg/kg intraperitoneal, vehicle control 0/8) | Sideration ratio of arthritis (number of diseased animals/number of tested animals) ([2]; Day 21, 50 mg/kg intraperitoneal once a day, vehicle control 2/8) | Sideration ratio of arthritis (number of diseased animals/number of tested animals) ([2]; Day 28, 50 mg/kg intraperitoneal once a day, vehicle control 7/8) | Sideration ratio of arthritis (number of diseased animals/number of tested animals) ([2]; Day 35, 50 mg/kg intraperitoneal once a day, vehicle control 8/8) | Sideration ratio of arthritis (number of diseased animals/number of tested animals) ([2]; Day 42, 50 mg/kg intraperitoneal once a day, vehicle control 8/8) | Sideration ratio of arthritis (number of diseased animals/number of tested animals) ([2]; Day 49, 50 mg/kg intraperitoneal once a day, vehicle control 8/8)
CS(=O)(=O)NC(=C[N+](=O)[O-])NNc1cc(C(F)(F)F)cc(Cl)n1 [Compound No. 157, N-(1-(6-chloro-4-trifluoromethyl-2-pyridyl)hydrazino-2-nitroethenyl)methanesulfonamide] | 59.5 | 0.070 ± 0.08 | 0.257 | 59.5 |  |  |  |  |  |  |  | 
CCOCCOc1cc(C(F)(F)F)cc(NNC(=C[N+](=O)[O-])NS(C)(=O)=O)n1 [Compound No. 164, N-(1-(6-(2-ethoxyethoxy)-4-trifluoromethyl-2-pyridyl)hydrazino-2-nitroethenyl)methanesulfonamide] |  |  |  |  | significantly delayed | no distinct toxicity or inhibition against the body weight increase | 0/8 | 0/8 | 2/8 | 6/8 | 7/8 | 7/8

— patent US6596863B2, “Medical composition containing nitroetheneamine Derivative or salt there of as active constituent” (Ishihara Sangyo Kaisha, Ltd., priority 1998, dated 2003)
